Measured values as given in US12404262B2 (priority 2021, dated 2025).
≈ marks a conversion by molar mass, not a printed value.

Key:
[1] = 1.0% DMSO, 24-hour incubation at ambient temperature, maximum theoretical 100 μM; for pH 2 solubility: 0.1N HCl, first value of the cell; for pH 7 solubility: 1×PBS buffer (pH 7.4), second value of the cell
[2] = Solubility in simulated intestinal fluids (FaSSIF/FeSSIF); conditions: 25 °C, thermodynamic from solid
[3] = fasted state simulated intestinal fluid (FaSSIF), fassif
[4] = fed state simulated intestinal fluid (FeSSIF), fessif

CC(C)(C#Cc1ccc(-c2ccc(Cl)c3c(N(C(=O)N[C@@H](COP(=O)(O)O)C(=O)O)S(C)(=O)=O)nn(CC(F)(F)F)c23)c([C@H](Cc2cc(F)cc(F)c2)NC(=O)Cn2nc(C(F)(F)F)c3c2C(F)(F)[C@@H]2C[C@H]32)n1)S(C)(=O)=O [Compound 59, N-((4-chloro-7-(2-((S)-1-(2-((3bS,4aR)-5,5-difluoro-3-(trifluoromethyl)-3b,4,4a,5-tetrahydro-1H-cyclopropa[3,4]cyclopenta[1,2-c]pyrazol-1-yl)acetamido)-2-(3,5-difluorophenyl)ethyl)-6-(3-methyl-3-(methylsulfonyl)but-1-yn-1-yl)pyridin-3-yl)-1-(2,2,2-trifluoroethyl)-1H-indazol-3-yl)(methylsulfonyl)carbamoyl)-O-phosphono-L-serine]
pH 2 solubility [1]: 2 μM
pH 7 solubility [1]: 21 μM
solubility [2, 3]: 798 µg/mL (≈ 677 µM)
solubility [2, 4]: 819 µg/mL (≈ 694 µM)

CC(C)(C#Cc1ccc(-c2ccc(Cl)c3c(N(C(=O)N[C@@H](COC(=O)C(=O)O)C(=O)O)S(C)(=O)=O)nn(CC(F)(F)F)c23)c([C@H](Cc2cc(F)cc(F)c2)NC(=O)Cn2nc(C(F)(F)F)c3c2C(F)(F)[C@@H]2C[C@H]32)n1)S(C)(=O)=O [Compound 60, O-(carboxycarbonyl)-N-((4-chloro-7-(2-((S)-1-(2-((3bS,4aR)-5,5-difluoro-3-(trifluoromethyl)-3b,4,4a,5-tetrahydro-1H-cyclopropa[3,4]cyclopenta[1,2-c]pyrazol-1-yl)acetamido)-2-(3,5-difluorophenyl)ethyl)-6-(3-methyl-3-(methylsulfonyl)but-1-yn-1-yl)pyridin-3-yl)-1-(2,2,2-trifluoroethyl)-1H-indazol-3-yl)(methylsulfonyl)carbamoyl)-L-serine]
pH 2 solubility [1]: 1 μM
pH 7 solubility [1]: 14 μM
solubility [2, 3]: 364 µg/mL (≈ 311 µM)
solubility [2, 4]: 756 µg/mL (≈ 645 µM)

CC(C)(C#Cc1ccc(-c2ccc(Cl)c3c(N(C(=O)N[C@](C)(CO)CC(=O)O)S(C)(=O)=O)nn(CC(F)(F)F)c23)c([C@H](Cc2cc(F)cc(F)c2)NC(=O)Cn2nc(C(F)(F)F)c3c2C(F)(F)[C@@H]2C[C@H]32)n1)S(C)(=O)=O [Compound 66, (S)-3-(3-(4-chloro-7-(2-((S)-1-(2-((3bS,4aR)-5,5-difluoro-3-(trifluoromethyl)-3b,4,4a,5-tetrahydro-1H-cyclopropa[3,4]cyclopenta[1,2-c]pyrazol-1-yl)acetamido)-2-(3,5-difluorophenyl)ethyl)-6-(3-methyl-3-(methylsulfonyl)but-1-yn-1-yl)pyridin-3-yl)-1-(2,2,2-trifluoroethyl)-1H-indazol-3-yl)-3-(methylsulfonyl)ureido)-4-hydroxy-3-methylbutanoic acid]
pH 2 solubility [1]: 1 μM
pH 7 solubility [1]: 10 μM
solubility [2, 3]: 425 µg/mL (≈ 377 µM)
solubility [2, 4]: 140 µg/mL (≈ 124 µM)

CC(C)(C#Cc1ccc(-c2ccc(Cl)c3c(N(C(=O)N[C@@H](CCC(=O)O)C(=O)O)S(C)(=O)=O)nn(CC(F)(F)F)c23)c([C@H](Cc2cc(F)cc(F)c2)NC(=O)Cn2nc(C(F)(F)F)c3c2C(F)(F)[C@@H]2C[C@H]32)n1)S(C)(=O)=O [Compound 68, ((4-chloro-7-(2-((S)-1-(2-((3bS,4aR)-5,5-difluoro-3-(trifluoromethyl)-3b,4,4a,5-tetrahydro-1H-cyclopropa[3,4]cyclopenta[1,2-c]pyrazol-1-yl)acetamido)-2-(3,5-difluorophenyl)ethyl)-6-(3-methyl-3-(methylsulfonyl)but-1-yn-1-yl)pyridin-3-yl)-1-(2,2,2-trifluoroethyl)-1H-indazol-3-yl)(methylsulfonyl)carbamoyl)-L-glutamic acid]
pH 2 solubility [1]: 1 μM
pH 7 solubility [1]: 18 μM
solubility [2, 3]: 700 µg/mL (≈ 613 µM)
solubility [2, 4]: 246 µg/mL (≈ 216 µM)

CC(C)(C#Cc1ccc(-c2ccc(Cl)c3c(N(C(=O)N[C@@H](CC(=O)O)C(=O)O)S(C)(=O)=O)nn(CC(F)(F)F)c23)c([C@H](Cc2cc(F)cc(F)c2)NC(=O)Cn2nc(C(F)(F)F)c3c2C(F)(F)[C@@H]2C[C@H]32)n1)S(C)(=O)=O [Compound 69, ((4-chloro-7-(2-((S)-1-(2-((3bS,4aR)-5,5-difluoro-3-(trifluoromethyl)-3b,4,4a,5-tetrahydro-1H-cyclopropa[3,4]cyclopenta[1,2-c]pyrazol-1-yl)acetamido)-2-(3,5-difluorophenyl)ethyl)-6-(3-methyl-3-(methylsulfonyl)but-1-yn-1-yl)pyridin-3-yl)-1-(2,2,2-trifluoroethyl)-1H-indazol-3-yl)(methylsulfonyl)carbamoyl)-L-aspartic acid]
pH 2 solubility [1]: 1 μM
pH 7 solubility [1]: 81 μM
solubility [2, 3]: 1580 µg/mL (≈ 1400 µM)
solubility [2, 4]: 247 µg/mL (≈ 219 µM)

CC(C)(C#Cc1ccc(-c2ccc(Cl)c3c(N(C(=O)N(CCNC(=O)OCOP(=O)(O)O)CCC(=O)O)S(C)(=O)=O)nn(CC(F)(F)F)c23)c([C@H](Cc2cc(F)cc(F)c2)NC(=O)Cn2nc(C(F)(F)F)c3c2C(F)(F)[C@@H]2C[C@H]32)n1)S(C)(=O)=O [Compound 80, 3-(3-(4-chloro-7-(2-((S)-1-(2-((3bS,4aR)-5,5-difluoro-3-(trifluoromethyl)-3b,4,4a,5-tetrahydro-1H-cyclopropa[3,4]cyclopenta[1,2-c]pyrazol-1-yl)acetamido)-2-(3,5-difluorophenyl)ethyl)-6-(3-methyl-3-(methylsulfonyl)but-1-yn-1-yl)pyridin-3-yl)-1-(2,2,2-trifluoroethyl)-1H-indazol-3-yl)-3-(methylsulfonyl)-1-(2-((((phosphonooxy)methoxy)carbonyl)amino)ethyl)ureido)propanoic acid]
pH 2 solubility [1]: 6 μM
pH 7 solubility [1]: 100 μM
solubility [2, 3]: 7550 µg/mL (≈ 5900 µM)
solubility [2, 4]: 1720 µg/mL (≈ 1350 µM)

CC(C)(C#Cc1ccc(-c2ccc(Cl)c3c(N(C(=O)N(CCCC(=O)O)CCNC(=O)OCOP(=O)(O)O)S(C)(=O)=O)nn(CC(F)(F)F)c23)c([C@H](Cc2cc(F)cc(F)c2)NC(=O)Cn2nc(C(F)(F)F)c3c2C(F)(F)[C@@H]2C[C@H]32)n1)S(C)(=O)=O [Compound 82]
pH 2 solubility [1]: 2 μM
pH 7 solubility [1]: 100 μM
solubility [2, 3]: 2680 µg/mL (≈ 2070 µM)
solubility [2, 4]: 1800 µg/mL (≈ 1390 µM)

CN(CCN(CCC(=O)O)C(=O)OCOP(=O)(O)O)C(=O)N(c1nn(CC(F)(F)F)c2c(-c3ccc(C#CC(C)(C)S(C)(=O)=O)nc3[C@H](Cc3cc(F)cc(F)c3)NC(=O)Cn3nc(C(F)(F)F)c4c3C(F)(F)[C@@H]3C[C@H]43)ccc(Cl)c12)S(C)(=O)=O [Compound 86, 3-((2-(3-(4-chloro-7-(2-((S)-1-(2-((3bS,4aR)-5,5-difluoro-3-(trifluoromethyl)-3b,4,4a,5-tetrahydro-1H-cyclopropa[3,4]cyclopenta[1,2-c]pyrazol-1-yl)acetamido)-2-(3,5-difluorophenyl)ethyl)-6-(3-methyl-3-(methylsulfonyl)but-1-yn-1-yl)pyridin-3-yl)-1-(2,2,2-trifluoroethyl)-1H-indazol-3-yl)-1-methyl-3-(methylsulfonyl)ureido)ethyl)(((phosphonooxy)methoxy)carbonyl)amino)propanoic acid]
pH 2 solubility [1]: 1 μM
pH 7 solubility [1]: 100 μM
solubility [2, 3]: 2020 µg/mL (≈ 1560 µM)
solubility [2, 4]: 1470 µg/mL (≈ 1130 µM)

CN(C(=O)N(c1nn(CC(F)(F)F)c2c(-c3ccc(C#CC(C)(C)S(C)(=O)=O)nc3[C@H](Cc3cc(F)cc(F)c3)NC(=O)Cn3nc(C(F)(F)F)c4c3C(F)(F)[C@@H]3C[C@H]43)ccc(Cl)c12)S(C)(=O)=O)[C@@H](CCC(=O)O)C(=O)OCOP(=O)(O)O [Compound 87, (S)-4-(3-(4-chloro-7-(2-((S)-1-(2-((3bS,4aR)-5,5-difluoro-3-(trifluoromethyl)-3b,4,4a,5-tetrahydro-1H-cyclopropa[3,4]cyclopenta[1,2-c]pyrazol-1-yl)acetamido)-2-(3,5-difluorophenyl)ethyl)-6-(3-methyl-3-(methylsulfonyl)but-1-yn-1-yl)pyridin-3-yl)-1-(2,2,2-trifluoroethyl)-1H-indazol-3-yl)-1-methyl-3-(methylsulfonyl)ureido)-5-oxo-5-((phosphonooxy)methoxy)pentanoic acid]
pH 2 solubility [1]: 1 μM
pH 7 solubility [1]: 18 μM
solubility [2, 3]: > 2480 µg/mL
solubility [2, 4]: 299 µg/mL (≈ 236 µM)

CN(C(=O)N(c1nn(CC(F)(F)F)c2c(-c3ccc(C#CC(C)(C)S(C)(=O)=O)nc3[C@H](Cc3cc(F)cc(F)c3)NC(=O)Cn3nc(C(F)(F)F)c4c3C(F)(F)[C@@H]3C[C@H]43)ccc(Cl)c12)S(C)(=O)=O)[C@@H](CC(=O)O)C(=O)OCOP(=O)(O)O [Compound 88, (S)-3-(3-(4-chloro-7-(2-((S)-1-(2-((3bS,4aR)-5,5-difluoro-3-(trifluoromethyl)-3b,4,4a,5-tetrahydro-1H-cyclopropa[3,4]cyclopenta[1,2-c]pyrazol-1-yl)acetamido)-2-(3,5-difluorophenyl)ethyl)-6-(3-methyl-3-(methylsulfonyl)but-1-yn-1-yl)pyridin-3-yl)-1-(2,2,2-trifluoroethyl)-1H-indazol-3-yl)-1-methyl-3-(methylsulfonyl)ureido)-4-oxo-4-((phosphonooxy)methoxy)butanoic acid]
pH 2 solubility [1]: 1 μM
pH 7 solubility [1]: 15 μM
solubility [2, 3]: 841 µg/mL (≈ 672 µM)
solubility [2, 4]: 589 µg/mL (≈ 471 µM)

CC(C)(C#Cc1ccc(-c2ccc(Cl)c3c(N(C(=O)OCOP(=O)(O)O)S(C)(=O)=O)nn(CC(F)(F)F)c23)c([C@H](Cc2cc(F)cc(F)c2)NC(=O)Cn2nc(C(F)(F)F)c3c2C(F)(F)[C@@H]2C[C@H]32)n1)S(C)(=O)=O [Compound 90, (phosphonooxy)methyl (4-chloro-7-(2-((S)-1-(2-((3bS,4aR)-5,5-difluoro-3-(trifluoromethyl)-3b,4,4a,5-tetrahydro-1H-cyclopropa[3,4]cyclopenta[1,2-c]pyrazol-1-yl)acetamido)-2-(3,5-difluorophenyl)ethyl)-6-(3-methyl-3-(methylsulfonyl)but-1-yn-1-yl)pyridin-3-yl)-1-(2,2,2-trifluoroethyl)-1H-indazol-3-yl)(methylsulfonyl)carbamate]
pH 2 solubility [1]: 1 μM
pH 7 solubility [1]: 48 μM
solubility [2, 3]: 2 µg/mL (≈ 1.78 µM)
solubility [2, 4]: 3 µg/mL (≈ 2.67 µM)
